Consider 21 compounds from patent US20230144824A1, “1H-PYRAZOLO[4,3-d]PYRIMIDINE COMPOUNDS AS TOLL-LIKE RECEPTOR 7 (TLR7) AGONISTS” (BRISTOL-MYERS SQUIBB COMPANY, priority 2020, published 2023).

A word on the EC50: it is the concentration needed to bring the measured effect to its halfway point.

Structures are written as SMILES.

The target of one assay is T1, human TLR7 (Homo sapiens, UniProt Q9NYK1).
T1 construct: host or cells: HEK-Blue TLR7 cells (engineered human embryonic kidney cells)
T1 sequence (Q9NYK1 27-1049): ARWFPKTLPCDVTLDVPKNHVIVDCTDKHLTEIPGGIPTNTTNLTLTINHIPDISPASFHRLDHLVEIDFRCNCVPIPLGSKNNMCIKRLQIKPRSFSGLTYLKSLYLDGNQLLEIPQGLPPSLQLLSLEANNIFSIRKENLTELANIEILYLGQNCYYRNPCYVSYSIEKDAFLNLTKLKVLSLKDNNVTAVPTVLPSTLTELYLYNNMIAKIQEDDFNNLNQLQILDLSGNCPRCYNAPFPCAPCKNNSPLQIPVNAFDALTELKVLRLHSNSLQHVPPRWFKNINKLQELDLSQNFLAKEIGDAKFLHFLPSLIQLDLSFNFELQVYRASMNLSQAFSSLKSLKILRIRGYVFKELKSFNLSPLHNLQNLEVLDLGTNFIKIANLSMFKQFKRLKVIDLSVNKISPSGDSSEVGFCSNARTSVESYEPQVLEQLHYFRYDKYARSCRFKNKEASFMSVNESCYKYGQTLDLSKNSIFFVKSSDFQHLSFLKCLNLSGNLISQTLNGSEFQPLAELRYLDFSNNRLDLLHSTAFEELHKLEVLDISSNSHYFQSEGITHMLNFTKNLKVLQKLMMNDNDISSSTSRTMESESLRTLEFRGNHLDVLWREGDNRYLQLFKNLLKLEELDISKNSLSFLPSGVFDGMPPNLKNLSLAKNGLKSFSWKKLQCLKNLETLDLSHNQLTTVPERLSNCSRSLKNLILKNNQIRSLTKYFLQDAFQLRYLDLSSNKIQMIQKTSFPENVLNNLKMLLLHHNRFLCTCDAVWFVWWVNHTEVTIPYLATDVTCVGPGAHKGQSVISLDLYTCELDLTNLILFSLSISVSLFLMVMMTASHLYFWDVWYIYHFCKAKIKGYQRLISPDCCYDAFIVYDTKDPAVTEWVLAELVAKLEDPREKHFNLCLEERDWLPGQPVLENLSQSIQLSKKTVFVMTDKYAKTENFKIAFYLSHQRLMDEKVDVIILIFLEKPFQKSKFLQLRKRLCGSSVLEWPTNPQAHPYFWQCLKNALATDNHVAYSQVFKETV
Kind of assay: Human TLR7 agonist activity assay (HEK-Blue TLR7 SEAP reporter). The assay is classed as cell-based. The following applies: HEK-Blue TLR7 cells, 18 h treatment, average where assay performed multiple times, read-out: hTLR7 Agonism EC50. The procedure, abridged:
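HEK-Blue TLR7 cells (15,000/well) treated with compound for 18 h at 37 °C, 5% CO2. Secreted SEAP measured with Quanti-Blue, 30 min, OD 620 nm. EC50 taken as concentration giving half-maximal response between baseline and maximum.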

In the next assay the test system is CD69. Briefly: Induction of CD69 in human whole blood. The assay is classed as cell-based. The following applies: Homo sapiens, 17 h, 100% set to 1 uM of resiquimod, average where assay performed multiple times, read-out: hWB CD69 EC50. The procedure, abridged: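 Heparinized human whole blood treated with TLR7 agonist at final 1 uM and incubated 17 h at 37° C. CD69 surface staining alongside CD14 and CD19, then fix/lysis and flow cytometry on iQuePlus. Curves fitted with 1 uM resiquimod set as 100%.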

On to `CCCCNc1nc(N)nc2c(Cl)nn(Cc3ncc(C4CCN(C5CCOCC5)CC4)cc3OC)c12` [Compound 149, N7-butyl-3-chloro-1-({3-methoxy-5-[1-(oxan-4-yl)piperidin-4-yl]pyridin-2-yl}methyl)-1H-pyrazolo[4,3-d]pyrimidine-5,7-diamine], for which the EC50 at human TLR7 amounted to 869 nM; in the assay on CD69 it was 590 nM.

On to `CCC[C@@H](CCO)Nc1nc(N)nc2cnn(Cc3ncc(N4CCNCC4)cc3OC)c12` [Compound 171, (3S)-3-[(5-amino-1-{[3-methoxy-5-(piperazin-1-yl)pyridin-2-yl]methyl}-1H-pyrazolo[4,3-d]pyrimidin-7-yl)amino]hexan-1-ol], for which the concentration for a half-maximal effect (EC50) stood at 309 nM at human TLR7 and 55.5 nM in the assay on CD69.

Turning to `CCC[C@@H](CCO)Nc1nc(N)nc2cnn(Cc3ncc(C4CCN(C5CC6(CCC6)C5)CC4)cc3OC)c12` [Compound 147, (3S)-3-[(5-amino-1-{[3-methoxy-5-(1-{spiro[3.3]heptan-2-yl}piperidin-4-yl)pyridin-2-yl]methyl}-1H-pyrazolo[4,3-d]pyrimidin-7-yl)amino]hexan-1-ol], the figures for the EC50 at human TLR7 and in the assay with CD69 were 15.7 nM and 2.1 nM, respectively.

As for `CCCCNc1nc(N)nc2cnn(Cc3ncc(C4CCN(C(=O)CC(C)(C)O)CC4)cc3OC)c12` [Compound 110, 1-[4-(6-{[5-amino-7-(butylamino)-1H-pyrazolo[4,3-d]pyrimidin-1-yl]methyl}-5-methoxypyridin-3-yl)piperidin-1-yl]-3-hydroxy-3-methylbutan-1-one], the EC50 on human TLR7 was 343 nM; with CD69, 382 nM.

As for `CCC[C@@H](CCO)Nc1nc(N)nc2cnn(Cc3ncc(C4CCNCC4)cc3OC)c12` [Compound 124, (3S)-3-[(5-amino-1-{[3-methoxy-5-(piperidin-4-yl)pyridin-2-yl]methyl}-1H-pyrazolo[4,3-d]pyrimidin-7-yl)amino]hexan-1-ol], the EC50 on human TLR7 worked out at 189 nM; in the assay on CD69 it was 56.9 nM.

As for `CCC[C@@H](CCO)Nc1nc(N)nc2cnn(Cc3ccc(C4CNCCN4)cc3OC)c12` (stereo partly drawn) [Compound 180, (3S)-3-[(5-amino-1-{[2-methoxy-4-(piperazin-2-yl)phenyl]methyl}-1H-pyrazolo[4,3-d]pyrimidin-7-yl)amino]hexan-1-ol], the EC50 on human TLR7 is 67.9 nM; in the assay with CD69, 7.2 nM.

`CCCCNc1nc(N)nc2cnn(Cc3ncc(C4CCN(C5COC5)CC4)cc3OC)c12` [Compound 102, N7-butyl-1-({3-methoxy-5-[1-(oxetan-3-yl)piperidin-4-yl]pyridin-2-yl}methyl)-1H-pyrazolo[4,3-d]pyrimidine-5,7-diamine]: the values for the EC50 on human TLR7 and with CD69 were 120 nM and 87.8 nM, respectively.

As for `CCCCNc1nc(N)nc2cnn(Cc3ncc(C4CCN(C(=O)CN5C[C@@H]6C[C@H]5CN6)CC4)cc3OC)c12` [Compound 118, 1-[4-(6-{[5-amino-7-(butylamino)-1H-pyrazolo[4,3-d]pyrimidin-1-yl]methyl}-5-methoxypyridin-3-yl)piperidin-1-yl]-2-[(1S,4S)-2,5-diazabicyclo[2.2.1]heptan-2-yl]ethan-1-one], the EC50 on human TLR7 turned out to be 716 nM; in the assay on CD69 it was 890 nM.

With `CCCCNc1nc(N)nc2cnn(Cc3ccc(C4CCN(C)CC4)cc3OC)c12` [Compound 163, N7-butyl-1-{[2-methoxy-4-(1-methylpiperidin-4-yl)phenyl]methyl}-1H-pyrazolo[4,3-d]pyrimidine-5,7-diamine], the values for the EC50 on human TLR7 and in the assay on CD69 were 5 nM and 0.065 nM, respectively.

`COc1cc(C2CCN(C3CC4(COC4)C3)CC2)cnc1Cn1ncc2nc(N)nc(NCC3CC4(CC4)C3)c21` (stereo not drawn) [Compound 154, 1-{[3-methoxy-5-(1-{2-oxaspiro[3.3]heptan-6-yl}piperidin-4-yl)pyridin-2-yl]methyl}-N7-({spiro[2.3]hexan-5-yl}methyl)-1H-pyrazolo[4,3-d]pyrimidine-5,7-diamine]: the EC50 at human TLR7 stood at 34 nM; in the assay on CD69, 7.1 nM.

With `CCC[C@@H](CCO)Nc1nc(N)nc2cnn(Cc3cnc(C4CCNCC4)cc3OC)c12` [Compound 166, (3S)-3-[(5-amino-1-{[4-methoxy-6-(piperidin-4-yl)pyridin-3-yl]methyl}-1H-pyrazolo[4,3-d]pyrimidin-7-yl)amino]hexan-1-ol], the EC50 amounted to 45.5 nM at human TLR7 and 22.5 nM in the assay on CD69.

For `CCC[C@@H](CCO)Nc1nc(N)nc2cnn(Cc3ncc(C4CCN(C5CCOCC5)CC4)cc3OC)c12` [Compound 127, (3S)-3-{[5-amino-1-({3-methoxy-5-[1-(oxan-4-yl)piperidin-4-yl]pyridin-2-yl}methyl)-1H-pyrazolo[4,3-d]pyrimidin-7-yl]amino}hexan-1-ol], the figures for the EC50 on human TLR7 and with CD69 were 12.8 nM and 2.7 nM, respectively.

As for `CCC[C@@H](CCO)Nc1nc(N)nc2cnn(Cc3ncc(C4CCN(CCO)CC4)cc3OC)c12` [Compound 125, (3S)-3-{[5-amino-1-({5-[1-(2-hydroxyethyl)piperidin-4-yl]-3-methoxypyridin-2-yl}methyl)-1H-pyrazolo[4,3-d]pyrimidin-7-yl]amino}hexan-1-ol], the half-maximal effective concentration (EC50) at human TLR7 turned out to be 57.8 nM; in the assay on CD69, 10.2 nM.

Regarding `CCC[C@@H](CCO)Nc1nc(N)nc2cnn(Cc3cnc(C4CCN(C)CC4)cc3OC)c12` [Compound 174, (3S)-3-[(5-amino-1-{[4-methoxy-6-(1-methylpiperidin-4-yl)pyridin-3-yl]methyl}-1H-pyrazolo[4,3-d]pyrimidin-7-yl)amino]hexan-1-ol], the EC50 on human TLR7 stood at 11 nM; in the assay on CD69, 2.9 nM.

Regarding `CCCCNc1nc(N)nc2cnn(Cc3cc(F)c(N4CCNCC4)cc3OC)c12` [Compound 192, N7-butyl-1-{[5-fluoro-2-methoxy-4-(piperazin-1-yl)phenyl]methyl}-1H-pyrazolo[4,3-d]pyrimidine-5,7-diamine], the values for the EC50 on human TLR7 and in the assay on CD69 were 193 nM and 58.2 nM, respectively.

For `CCCCNc1nc(N)nc2cnn(Cc3ncc(C4CCN(C5CCCC5)CC4)cc3OC)c12` [Compound 129, N7-butyl-1-{[5-(1-cyclopentylpiperidin-4-yl)-3-methoxypyridin-2-yl]methyl}-1H-pyrazolo[4,3-d]pyrimidine-5,7-diamine], the concentration for a half-maximal effect (EC50) worked out at 27.3 nM at human TLR7 and 7.6 nM in the assay on CD69.

Take `CCC[C@@H](CCO)Nc1nc(N)nc2cnn(Cc3nc(C4CCN(C(=O)CN(C)C)CC4)ccc3OC)c12` [Compound 187, 1-(4-{6-[(5-amino-7-{[(3S)-1-hydroxyhexan-3-yl]amino}-1H-pyrazolo[4,3-d]pyrimidin-1-yl)methyl]-5-methoxypyridin-2-yl}piperidin-1-yl)-2-(dimethylamino)ethan-1-one]: the concentration giving a half-maximal response (EC50) is 402 nM at human TLR7 and 80.5 nM in the assay on CD69.

`CCCCNc1nc(N)nc2cnn(Cc3ncc(C4CCN(C(C)C)CC4)cc3OC)c12` [Compound 113, N7-butyl-1-({3-methoxy-5-[1-(propan-2-yl)piperidin-4-yl]pyridin-2-yl}methyl)-1H-pyrazolo[4,3-d]pyrimidine-5,7-diamine]: the concentration for a half-maximal effect (EC50) on human TLR7 stood at 47.2 nM; with CD69, 9.4 nM.

For `CCCCNc1nc(N)nc2cnn(Cc3ncc(C4CCN(C5CCC5)CC4)cc3OC)c12` [Compound 108, N7-butyl-1-{[5-(1-cyclobutylpiperidin-4-yl)-3-methoxypyridin-2-yl]methyl}-1H-pyrazolo[4,3-d]pyrimidine-5,7-diamine], the EC50 on human TLR7 amounted to 51.9 nM; in the assay with CD69 it was 4.8 nM.

Turning to `CCCCNc1nc(N)nc2cnn(Cc3ncc(C4CCN(CC(N)=O)CC4)cc3OC)c12` [Compound 119, 2-[4-(6-{[5-amino-7-(butylamino)-1H-pyrazolo[4,3-d]pyrimidin-1-yl]methyl}-5-methoxypyridin-3-yl)piperidin-1-yl]acetamide], the figures for the EC50 at human TLR7 and with CD69 were 165 nM and 5.1 nM, respectively.

With `COc1cc(C2CCN(C3CCOCC3)CC2)cnc1Cn1ncc2nc(N)nc(NCC3CC4(CC4)C3)c21` [Compound 157, 1-({3-methoxy-5-[1-(oxan-4-yl)piperidin-4-yl]pyridin-2-yl}methyl)-N7-({spiro[2.3]hexan-5-yl}methyl)-1H-pyrazolo[4,3-d]pyrimidine-5,7-diamine], the half-maximal effective concentration (EC50) at human TLR7 worked out at 50.8 nM; with CD69, 37 nM.
